# Data taken from patent publication US10519138B2, “Modulators of SOCE, compositions, and uses thereof” (Università degli Studi del Piemonte Orientale “Amedeo …, priority 2016, dated 2019).
# Entries after “also recorded” stand apart in the source; their conditions may differ.
# Columns and labels:
# [1] = test system: Store Operated Calcium Entry (SOCE) in Jurkat cells; assay: Fura-2 single-cell Ca2+ measurement of tBHQ-induced SOCE in Jurkat cells; type: cell-based, human; details: Homo sapiens, SOCE modulation based on tBHQ-induced calcium influx
# Method: Immortalized line of human T lymphocyte Jurkat cells were achieved from ATCC (ATCC® TIB-152™, Rockville, Md., USA) and were cultured in Roswell Park Memorial Institute Medium (RPMI 1640; Sigma-Aldrich, Italy), supplemented with 10% heat-inactivated FBS (Gibco, Italy), 1-glutamine 50 mg/mL (Sigma-Aldrich, Italy), penicillin 10 U/mL and streptomycin […] (Sigma-Aldrich, Italy) at 37° C., under a 5% CO2 humidified atmosphere. For experiments, the cells were plated onto glass coverslips at concentrations of 6×10^4 per mL (24 mm diameter coverslips in 6 well plates).
# Compounds were also tested on Jurkat cells in single-cell analysis using Fura-2 AM on cover-slips. Jurkat cells were loaded with 5 μM Fura-2 AM in presence of 0.02% of Pluronic-127 (both from Life Technologies, Italy) and 1 μM sulfinpyrazone in Krebs-Ringer buffer (KRB, 135 mM NaCl, 5 mM KCl, 0.4 mM KH2PO4, 1 mM MgSO4, 5.5 mM glucose, 20 mM HEPES, pH 7.4) containing 2 mM CaCl2 (30 min, room temperature). Afterwards, cells were washed and incubated with KRB for other 30 min to allow de-esterification of Fura-2AM. To measure store operated calcium entry, changes in cytosolic Ca^2+ were monitored upon depletion of the intracellular Ca^2+ stores. Experiments were carried out prior to and during exposure of the cells to the Ca^2+-free solution. In the absence of Ca^2+, the intracellular Ca^2+ stores were depleted by inhibition of the vesicular Ca^2+ pump by 2,5-t-butylhydroquinone (tBHQ, 50 μM; Sigma-Aldrich, Italy). Re-addition of 2 mM Ca^2+ allowed assessing the SOCE. During the experiments the cover-slips were mounted into acquisition chamber and placed on the stage of a Leica DMI6000 epi-fluorescent microscope equipped with S Fluor ×40/1.3 objective. Fura-2 was excited by alternate 340 and 380 nm using a Polychrome IV mono-chromator (Till Photon-ics, Germany) and the probe emission light was filtered through 520/20 band-pass filter and collected by a cooled CCD camera (Hamamatsu, Japan). The fluorescence signals were acquired and processed using MetaFluor software (Molecular Device, Sun-Nyvale, C A, USA). To quantify the differences in the amplitudes of Ca^2+ transients the ratio values were normalized using the formula ΔF/F0 (referred to as normalized Fura-2 ratio, “Norm. Fura ratio”). The percentage of SOCE modulation for each of 15 compounds was determined based on value of tBHQ-induced calcium influx into Jurkat cells. Data were analysed using Microsoft Excel and GraphPad Prism.
# Orai1 mutated proteins = assay: SOCE in HEK cells overexpressing wild-type or mutated Orai1 (Fura2-AM single cell analysis); type: cell-based, human; details: 10 μM
# Method: (§1) SOCE induced by tBHQ in wilde-type HEK cells or HEK cells overexpressing the indicated STIM1 (A) or Orai1 (B) proteins. Average traces of approx. 600 cells from 20 coverslips performed on 4 separate days for each condition.
# (§2) 3-(1-(4-(4-(ethoxycarbonyl)-5-(trifluoromethyl)-1H-pyrazol-1-yl)phenyl)-1H-1,2,3-triazol-4-yl)benzoic acid 10 μM impairs SOCE both in Wild-type and STIM1 (A) or Orai1 (B) mutated cells.
# (§3) HEK STIM1 c.326A>G p.H109R (A) and HEK Orai1 c.734C>T p.P245L (B) cells were assayed for a calcium response to different concentrations of 3-(1-(4-(4-(ethoxycarbonyl)-5-(trifluoromethyl)-1H-pyrazol-1-yl)phenyl)-1H-1,2,3-triazol-4-yl)benzoic acid (1-3-10-30-100 μM) using Fura2-AM single cell analysis. Concentration-response curves represent the AUC % of 3-(1-(4-(4-(ethoxycarbonyl)-5-(trifluoromethyl)-1H-pyrazol-1-yl)phenyl)-1H-1,2,3-triazol-4-yl)benzoic acid.
# (§4) Human embryonic kidney HEK cells were obtained from ATCC (ATCC® CRL-1573™, Rockville, Md., USA) and were cultured in Dulbecco's Modified Eagle's Medium (DMEM; Sigma-Aldrich, Italy), supplemented with 10% heat-inactivated FBS (Gibco, Italy), 1-glutamine 50 mg/mL (Sigma-Aldrich, Italy), penicillin 10 U/mL and streptomycin […] (Sigma-Aldrich, Italy) at 37° C., under a 5% CO2 humidified atmosphere. […]
# [2] = test system: Store Operated Calcium Entry (SOCE) in BV-2 cells; assay: Fluo-4 fluorimetric assay of tBHQ-induced store operated calcium entry in BV-2 cells; type: cell-based, mouse
# Method: (A) BV-2 cells were plated in poly-d-lysine coated 24-well plate and incubated overnight. After 24 hours, cells were loaded with 2 μM Fluo-4 and placed in an extracellular solution containing 0 mM Ca^2+. Stores were depleted with 50 μM tBHQ and calcium influx was stimulated by the addition of 2 mM Ca^2+ alone (Ctrl), or in conbination with: compound with no activity (NM-3A), and compounds that positively (4-(1-(4-(3,5-bis(trifluoromethyl)-1H-pyrazol-1-yl)phenyl)-1H-1,2,3-triazol-4-yl)benzoic acid) and negatively (3-(1-(4-(4-(ethoxycarbonyl)-5-(trifluoromethyl)-1H-pyrazol-1-yl)phenyl)-1H-1,2,3-triazol-4-yl)benzoic acid) regulate SOCE. Calcium responses are expressed as changes in fluorescence intensity before and after the addition of selected modulators. (B) BV-2 cells were assayed for a calcium response to different concentrations of 3-(1-(4-(4-(ethoxycarbonyl)-5-(trifluoromethyl)-1H-pyrazol-1-yl)phenyl)-1H-1,2,3-triazol-4-yl)benzoic acid and 4-(1-(4-(3,5-bis(trifluoromethyl)-1H-pyrazol-1-yl)phenyl)-1H-1,2,3-triazol-4-yl)benzoic acid (0.1-0.3-1-3-10-30-100 μM) using Fluo-4 fluorimetric assay. Concentration-response curves represent the AUC % of both compounds as compared to positive control.
# Immortalized primary mouse microglial BV-2 cells were obtained from ATCC (ATCC® CRL-2540™, Rockville, Md., USA) and were cultured in Dulbecco's Modified Eagle's Medium (DMEM; Sigma-Aldrich, Italy), supplemented with 10% heat-inactivated FBS (Gibco, Italy), 1-glutamine 50 mg/mL (Sigma-Aldrich, Italy), penicillin 10 U/mL and streptomycin […] (Sigma-Aldrich, Italy) at 37° C., under a 5% CO2 humidified atmosphere. For experiments, the cells were plated 2×10^4 per ml in 24 well plates) or onto glass coverslips at concentrations of 4×10^4 per mL (24 mm diame-ter coverslips in 6 well plates).
# BV-2 cells were loaded with 5 μM Fluo-4 AM in presence of 0.02% of Pluronic-127 (both from Life Technologies, Italy) and 10 μM sulfinpyrazone in Krebs-Ringer buffer (KRB, 135 mM NaCl, 5 mM KCl, 0.4 mM KH2PO4, 1 mM MgSO4, 5.5 mM glucose, 20 mM HEPES, pH 7.4) containing 2 mM CaCl2 (30 min, room temperature). Subsequently, cells were washed and incubated with KRB for other 30 min to allow de-esterification of Fluo-4 AM. Experiments were carried out prior to and during exposure of the cells to the Ca^2+-free solution. In the absence of Ca^2+, the intracellular Ca^2+ stores were depleted by 2,5-t-butylhydroquinone (tBHQ, 50 μM; Sigma-Aldrich, Italy), a SERCA poison, and then calcium 2 mM was re-added to the extracellular solution. Fluorescence is then monitored sequentially for a second in each well for 600 seconds with excitation at 494 nm and an emission wavelength at 516 nm on the V3 Victor plate-reader (Perkin Elmer), generating time-curves for each well. Data were analysed using Microsoft Excel and GraphPad Prism.
# The percentage of SOCE inhibition for each compound was determined based on value of tBHQ-induced calcium influx into BV-2 cells (Table 2).
# STIM1 mutated proteins = assay: SOCE in HEK cells overexpressing wild-type or mutated STIM1 (Fura2-AM single cell analysis); type: cell-based, human; details: 10 μM
# Method: as §1, §2, §3, §4
smiles,measurement,setting,value
"CCOC(=O)c1cnn(-c2ccc(-n3cc(-c4cccc(C(=O)O)c4)nn3)cc2)c1C(F)(F)F [3-(1-(4-(4-(ethoxycarbonyl)-5-(trifluoromethyl)-1H-pyrazol-1-yl)phenyl)-1H-1,2,3-triazol-4-yl)benzoic acid]",inhibition at 10 µM,[1],70.4%
same,Effect on SOCE in wild-type and Orai1 mutated cells (FIG. 4B),Orai1 mutated proteins,impairs SOCE; also recorded: able to revert the over-activation
same,"Regulation of SOCE (calcium response, representative traces FIG. 2A)","[2]; Fluo-4, 50 μM tBHQ, 2 mM Ca2+ re-addition",negatively
same,inhibition at 10 µM,"[2]; Mus musculus, 10 μM, SOCE inhibition based on tBHQ-induced calcium influx",45.3%
same,Effect on SOCE in wild-type and STIM1 mutated cells (FIG. 4A),STIM1 mutated proteins,impairs SOCE; also recorded: able to revert the over-activation
